What was measured:
[1] = target: T1, Ephrin type-B receptor 3 (Homo sapiens) (UniProt P54753); assay: Inhibition of EPH-B3 (unknown origin) at 1 uM incubated for 30 mins in presence of [gamma-33P]ATP by multidrop micro reagent based assay relative to control
T1 sequence (whole entry): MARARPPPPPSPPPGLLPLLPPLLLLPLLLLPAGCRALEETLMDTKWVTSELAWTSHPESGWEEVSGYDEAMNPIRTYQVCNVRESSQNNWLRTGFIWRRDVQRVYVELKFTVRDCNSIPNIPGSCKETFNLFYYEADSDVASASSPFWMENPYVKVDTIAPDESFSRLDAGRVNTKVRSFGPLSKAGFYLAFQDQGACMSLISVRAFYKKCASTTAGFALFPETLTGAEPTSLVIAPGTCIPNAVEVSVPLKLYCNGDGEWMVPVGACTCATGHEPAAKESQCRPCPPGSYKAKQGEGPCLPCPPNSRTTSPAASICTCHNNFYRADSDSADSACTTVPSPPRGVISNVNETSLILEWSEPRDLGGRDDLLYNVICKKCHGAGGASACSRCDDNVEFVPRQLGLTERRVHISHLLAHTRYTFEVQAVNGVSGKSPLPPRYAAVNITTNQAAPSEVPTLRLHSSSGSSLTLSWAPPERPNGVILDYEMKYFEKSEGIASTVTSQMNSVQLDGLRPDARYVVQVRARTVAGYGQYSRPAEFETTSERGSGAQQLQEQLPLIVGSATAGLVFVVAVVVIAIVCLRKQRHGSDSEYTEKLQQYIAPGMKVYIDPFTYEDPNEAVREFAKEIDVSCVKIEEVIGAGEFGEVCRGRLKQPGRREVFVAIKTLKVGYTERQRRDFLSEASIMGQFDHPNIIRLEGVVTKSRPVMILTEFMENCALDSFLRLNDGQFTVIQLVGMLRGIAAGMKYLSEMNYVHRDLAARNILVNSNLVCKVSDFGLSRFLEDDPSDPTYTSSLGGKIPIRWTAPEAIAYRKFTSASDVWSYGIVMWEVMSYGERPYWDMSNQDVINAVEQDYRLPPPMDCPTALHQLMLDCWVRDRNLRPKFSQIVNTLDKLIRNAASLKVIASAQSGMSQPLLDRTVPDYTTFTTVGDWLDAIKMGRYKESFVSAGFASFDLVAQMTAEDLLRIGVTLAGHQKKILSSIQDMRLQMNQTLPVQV

[2] = target: Serine/threonine-protein kinase PAK 6 (Homo sapiens) (UniProt Q9NQU5); assay: Inhibition of PAK6 (unknown origin) at 10 uM incubated for 30 mins in presence of [gamma-33P]ATP by multidrop micro reagent based assay relative to control; values are per cent of control
[3] = target: T2, Dual specificity tyrosine-phosphorylation-regulated kinase 2 (Homo sapiens) (UniProt Q92630); assay: Inhibition of DYRK2 (unknown origin) at 10 uM incubated for 30 mins in presence of [gamma-33P]ATP by multidrop micro reagent based assay relative to control; values are per cent of control
T2 sequence (whole entry): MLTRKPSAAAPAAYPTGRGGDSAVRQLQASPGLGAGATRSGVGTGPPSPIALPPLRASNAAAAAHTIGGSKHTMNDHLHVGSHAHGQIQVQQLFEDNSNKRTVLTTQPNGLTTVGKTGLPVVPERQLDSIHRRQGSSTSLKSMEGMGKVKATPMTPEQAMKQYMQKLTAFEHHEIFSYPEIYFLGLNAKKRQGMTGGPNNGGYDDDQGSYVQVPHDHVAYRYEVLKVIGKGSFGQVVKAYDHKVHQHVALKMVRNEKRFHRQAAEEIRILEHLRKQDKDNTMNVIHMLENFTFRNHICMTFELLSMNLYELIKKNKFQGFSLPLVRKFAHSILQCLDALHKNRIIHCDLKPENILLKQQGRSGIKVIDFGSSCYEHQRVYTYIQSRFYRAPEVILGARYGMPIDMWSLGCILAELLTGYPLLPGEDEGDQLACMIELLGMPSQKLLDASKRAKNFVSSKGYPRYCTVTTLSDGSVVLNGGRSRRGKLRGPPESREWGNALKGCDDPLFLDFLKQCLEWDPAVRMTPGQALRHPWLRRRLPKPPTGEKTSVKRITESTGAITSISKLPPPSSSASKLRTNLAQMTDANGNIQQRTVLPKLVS

[4] = target: T3, Interleukin-1 receptor-associated kinase 4 (Homo sapiens) (UniProt Q9NWZ3); assay: Inhibition of IRAK4 (unknown origin) at 10 uM incubated for 30 mins in presence of [gamma-33P]ATP by multidrop micro reagent based assay relative to control; values are per cent of control
T3 sequence (whole entry): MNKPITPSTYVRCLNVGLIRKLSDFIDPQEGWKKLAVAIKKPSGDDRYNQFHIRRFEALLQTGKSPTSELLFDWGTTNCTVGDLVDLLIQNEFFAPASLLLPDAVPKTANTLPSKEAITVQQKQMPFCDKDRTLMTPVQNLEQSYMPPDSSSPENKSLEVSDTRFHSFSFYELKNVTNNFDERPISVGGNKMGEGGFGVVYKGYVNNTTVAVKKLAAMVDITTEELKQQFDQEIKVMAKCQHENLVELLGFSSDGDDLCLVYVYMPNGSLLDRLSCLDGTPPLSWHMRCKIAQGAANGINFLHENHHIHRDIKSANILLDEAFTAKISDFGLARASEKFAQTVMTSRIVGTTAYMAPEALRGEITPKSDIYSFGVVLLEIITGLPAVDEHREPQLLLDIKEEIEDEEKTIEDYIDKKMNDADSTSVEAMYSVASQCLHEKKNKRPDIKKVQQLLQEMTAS

Chain of Serine/threonine-protein kinase PAK 6 (Homo sapiens) (Q9NQU5 whole entry, looked up): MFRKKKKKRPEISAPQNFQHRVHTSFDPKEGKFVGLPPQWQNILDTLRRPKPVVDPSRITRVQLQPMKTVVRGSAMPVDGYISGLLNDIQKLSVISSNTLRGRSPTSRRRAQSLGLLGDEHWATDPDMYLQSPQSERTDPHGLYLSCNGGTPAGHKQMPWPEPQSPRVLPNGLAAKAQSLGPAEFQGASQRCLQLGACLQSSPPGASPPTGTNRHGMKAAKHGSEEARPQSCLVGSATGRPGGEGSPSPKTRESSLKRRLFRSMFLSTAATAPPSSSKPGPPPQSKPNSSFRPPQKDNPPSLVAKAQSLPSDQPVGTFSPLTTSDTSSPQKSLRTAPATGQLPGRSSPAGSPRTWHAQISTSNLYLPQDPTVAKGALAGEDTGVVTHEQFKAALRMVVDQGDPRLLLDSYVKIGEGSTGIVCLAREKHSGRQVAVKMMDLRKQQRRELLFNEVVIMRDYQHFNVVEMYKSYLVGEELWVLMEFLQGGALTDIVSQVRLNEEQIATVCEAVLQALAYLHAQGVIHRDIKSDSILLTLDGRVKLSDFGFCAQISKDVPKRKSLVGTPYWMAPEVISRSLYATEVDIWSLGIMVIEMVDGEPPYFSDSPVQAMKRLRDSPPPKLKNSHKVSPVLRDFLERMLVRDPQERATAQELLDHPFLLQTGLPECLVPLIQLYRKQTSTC

Structure (SMILES)	inhibition [1] [%]	residual activity [2] [%]	residual activity [3] [%]	residual activity [4] [%]
CC1=C(C(=O)Nc2cc3cn[nH]c3cc2F)C(c2ccc(C(F)(F)F)cc2)CC(=O)N1 (stereo not drawn)	87	–	–	–
Cc1cncc2cccc(S(=O)(=O)N3CCCNC[C@@H]3C)c12	69	–	–	–
C[C@@H](N)[C@H]1CC[C@H](C(=O)Nc2ccncc2)CC1	–	96	92	101
O=S(=O)(c1cccc2cnccc12)N1CCCNCC1 [FASUDIL]	–	110	80	69
